The results in this text go back to US20100040544A1, “METHOD FOR MANAGING PATIENTS WITH CANCER” (priority 2006, published 2010).

The data set can be described thus: T1 relaxation in human full blood. As to conditions: in human full blood at 37° C. It is filed as physicochemical.

In the case of `CC(=O)[13C](=O)O` [^13C1-pyruvate], the T1 relaxation result is on record as “about 42 s”.
